Data from patent publication US20100119599A1 (ARCHER PHARMACEUTICALS, INC., priority 2006, published 2010).

Tests used:
Aβ1-40 = test: Measurement of Aβ1-40 in culture medium of 7W WT APP751 CHO cells by ELISA; assay type: cell-based, Chinese hamster; conditions: for activity at 5 µM: Cricetulus griseus, Table 1, 5 μM test compound, CHO cells stably transfected with human APP751, culture medium, ELISA, control DMSO, 0 = no detectable amount; for Aβ1-40 (% of control): CHO cells that overexpress APP751, zero = below the detection limit of the assay
Experimental: (§1) Chinese hamster ovary (CHO) cells, stably transfected with human APP751 (7W WT APP751 CHO cells) were used. See, e.g., Koo and Squazzo, J. Biol. Chem., 269(26): 17386-17389, 1994. The cells were maintained in DMEM medium supplemented with 10% fetal bovine serum and 1× mixture of penicillin/streptomycin/fungizone/glutamine mixture (Cambrex, Md.) geneticin as selecting agent in 75 cm^2 cell culture flasks. The 7W WT APP751 CHO cells were plated in 96-well cell culture plates in quadruplicate, containing 200 microliters of culture medium, for 18 hours at 37° C. and 5% CO2. All test compounds were placed in dimethyl sulfoxide (DMSO) before being added to the cultured confluent 7W WT APP751 CHO cells to a concentration of the test compound of 5 μM. The culture medium was collected and diluted before being assayed by ELISAs for Aβ1-40 at 10-fold dilution and Aβ1-42 at 2-fold dilution, respectively. Concentrations of Aβ1-40 and Aβ1-42, expressed in pg/ml, were determined using commercially available ELISAs (Biosource, Calif.) in a colorimetric assay using labeled antibodies detected spectrophotometrically. For compounds with an identification beginning “RI”, the compounds were tested at a concentration of 10 μM for 24 hours. Control cells were treated with DMSO containing no compound. The percentage reduction in levels of Aβ1-40 and Aβ1-42 as compared to control cells not exposed to the test compounds are reported for the compounds in Tables 1, 2, and 3, supra. An entry of “0” indicates no detectable amount of Aβ1-40 or Aβ1-42 according to the assay conditions. The data in Tables 1, 2, and 3 may be rounded to the nearest 0.1%.

Aβ1-42 = test: Measurement of Aβ1-42 in culture medium of 7W WT APP751 CHO cells by ELISA; assay type: cell-based, Chinese hamster; conditions: for activity at 5 µM: Cricetulus griseus, Table 1, 5 μM test compound, CHO cells stably transfected with human APP751, culture medium, ELISA, control DMSO, 0 = no detectable amount, read-out: Aβ1-42 (% of control); for Aβ1-42 (% of control): CHO cells that overexpress APP751, zero = below the detection limit of the assay
Experimental: as §1
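Also: 5 µM test compound but RI-coded compounds at 10 µM for 24 hours.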

Row | SMILES | activity at 5 µM (Aβ1-40) | activity at 5 µM (Aβ1-42) | Aβ1-40 (% of control) (Aβ1-40) | Aβ1-42 (% of control) (Aβ1-42)
1 | CCCOC(=O)C1=C(C)NC2=C(C(=O)CCC2)C1c1cc(Br)ccc1OC (stereo not drawn) [ST052364, propyl 4-(5-bromo-2-methoxyphenyl)-2-methyl-5-oxo-1,4,6,7,8-pentahydroquinoline-3-carboxylate] | 27% | 13.5% |  | 
2 | CCCOc1ccccc1C1C(C(=O)OCC(C)C)=C(C)NC2=C1C(=O)CC(c1ccccc1)C2 (stereo not drawn) [ST016984, 2-methylpropyl 2-methyl-5-oxo-7-phenyl-4-(2-propoxyphenyl)-1,4,6,7,8-pentahydroquinoline-3-carboxylate] | 25.4% | 56.2% |  | 
3 | CC1=C(C(=O)Nc2ccccc2)C(c2cccs2)C(C#N)=C(SCC(=O)Nc2ccc(C)cc2)N1 (stereo not drawn) [RI_50] |  |  | 55.2 % of control | 38.2 % of control
4 | CC1=C(C(=O)Nc2ccccc2)C(c2cccs2)C(C#N)=C(SCC(=O)Nc2ccccc2)N1 (stereo not drawn) [RI_66] |  |  | 20.6 % of control | 23.6 % of control
5 | COc1ccc(C2CC(=O)C3=C(C2)NC(C)=C(C(=O)OC(C)C)C3c2ccc(F)cc2)cc1 (stereo not drawn) [ST017066, methylethyl 4-(4-fluorophenyl)-7-(4-methoxyphenyl)-2-methyl-5-oxo-1,4,6,7,8-pentahydroquinoline-3-carboxylate] | 24.9% | 57.4% |  | 
6 | CCSCCOC(=O)C1=C(C)NC2=C(C(=O)CCC2)C1c1ccc(C(=O)OC)cc1 (stereo not drawn) [ST017106, methyl 4-{3-[(2-ethylthioethyl)oxycarbonyl]-2-methyl-5-oxo-4-1,4,6,7,8-pentahydroquinolyl}benzoate] | 36.8% | 0% |  | 
7 | CC1=C(C(=O)OCCc2ccccc2)C(c2cc3c(cc2Br)OCO3)C2=C(CC(C)(C)CC2=O)N1 (stereo not drawn) [ST014885, 2-phenylethyl 4-(6-bromo(2H-benzo[d]1,3-dioxolen-5-yl))-2,7,7-trimethyl-5-oxo-1,4,6,7,8-pentahydroquinoline-3-carboxylate] | 39.5% | 87.5% |  | 
8 | CCOCCOC(=O)C1=C(C)NC2=C(C(=O)CC(C)(C)C2)C1c1ccc(O)c(OC)c1 (stereo not drawn) [ST013343, 2-ethoxyethyl 4-(4-hydroxy-3-methoxyphenyl)-2,7,7-trimethyl-5-oxo-1,4,6,7,8-pentahydroquinoline-3-carboxylate] | 61.1% | 83% |  | 
9 | CC1=C(C(=O)OC2CCCCCC2)C(c2cccc(Br)c2)C2=C(CC(C)(C)CC2=O)N1 (stereo not drawn) [ST024487, cycloheptyl 4-(3-bromophenyl)-2,7,7-trimethyl-5-oxo-1,4,6,7,8-pentahydroquinoline-3-carboxylate] | 5.07% | 3.77% |  | 
10 | COCCOC(=O)C1=C(C)NC2=C(C(=O)CC(c3ccc(OC)cc3)C2)C1c1cccc(OC)c1 (stereo not drawn) [ST017097, 2-methoxyethyl 4-(3-methoxyphenyl)-7-(4-methoxyphenyl)-2-methyl-5-oxo-1,4,6,7,8-pentahydroquinoline-3-carboxylate] | 68.2% | 80.9% |  | 
11 | CCOC(=O)C1=C(C)NC2=C(C(=O)CCC2)C1c1ccc(OCc2ccc(Cl)cc2)c(OC)c1 (stereo not drawn) [ST028598, ethyl 4-{4-[(4-chlorophenyl)methoxy]-3-methoxyphenyl}-2-methyl-5-oxo-1,4,6,7,8-pentahydroquinoline-3-carboxylate] | 27.4% | 71.6% |  | 
12 | COC(=O)C1=C(C)N(C)C(C)=C(C(=O)OC)C1c1cccc(Oc2ccccc2)c1 [ST024552, methyl 5-(methoxycarbonyl)-1,2,6-trimethyl-4-(3-phenoxyphenyl)-1,4-dihydropyridine-3-carboxylate] |  |  | 57.26 % of control | 74.81 % of control
13 | COC(=O)C1=CN(CC2CCCO2)C=C(C(=O)OC)C1c1ccc(Cl)c(Cl)c1 (stereo not drawn) [ST045237, methyl 4-(3,4-dichlorophenyl)-5-(methoxycarbonyl)-1-(oxolan-2-ylmethyl)-1,4-dihydropyridine-3-carboxylate] |  |  | 60.46 % of control | 50.77 % of control
14 | CCCCOC(=O)C1=C(C)NC2=C(C(=O)CC(C)(C)C2)C1c1ccc(Cl)cc1 (stereo not drawn) [ST024431, butyl 4-(4-chlorophenyl)-2,7,7-trimethyl-5-oxo-1,4,6,7,8-pentahydroquinoline-3-carboxylate] | 0% | 0% |  | 
15 | CC1=C(C(=O)Nc2ccccc2)C(c2cccs2)C(C#N)=C(S)N1 (stereo not drawn) [RI_28] |  |  | 77.1 % of control | 68.5 % of control
16 | COC(=O)C1=C(C)NC2=C(C(=O)CCC2)C1c1cccc(C(F)(F)F)c1 (stereo not drawn) [ST052347, methyl 2-methyl-5-oxo-4-[3-(trifluoromethyl)phenyl]-1,4,6,7,8-pentahydroquinoline-3-carboxylate] | 57.2% | 64.3% |  | 
17 | COc1cc(Br)c(C2C(C#N)=C(C)NC3=C2C(=O)CC(c2ccc(Cl)cc2)C3)cc1OC (stereo not drawn) [ST017045, 4-(2-bromo-4,5-dimethoxyphenyl)-7-(4-chlorophenyl)-2-methyl-5-oxo-1,4,6,7,8-pentahydroquinoline-3-carbonitrile] | 42.6% | 46% |  | 
18 | COC(=O)C1=C(C)NC2=C(C(=O)CC(C)(C)C2)C1c1ccc(OCc2cccc(C(F)(F)F)c2)c(OC)c1 (stereo not drawn) [ST028607, methyl 4-(3-methoxy-4-{[3-(trifluoromethyl)phenyl]methoxy}phenyl)-2,7,7-trimethyl-5-oxo-1,4,6,7,8-pentahydroquinoline-3-carboxylate] | 23.8% | 63.3% |  | 
19 | N#CC1=C(N)NC(SCC(N)=O)=C(C#N)C1c1ccccc1Cl (stereo not drawn) [ST050859, 2-[6-amino-4-(2-chlorophenyl)-3,5-dicyano-2-1,4-dihydropyridylthio]acetamide] |  |  | 75.54 % of control | 35.47 % of control
20 | COC(=O)C1=C(C)NC2=C(C(=O)CC(C)(C)C2)C1c1ccc(OCc2ccc(Cl)cc2)c(OC)c1 (stereo not drawn) [ST028595, methyl 4-{4-[(4-chlorophenyl)methoxy]-3-methoxyphenyl}-2,7,7-trimethyl-5-oxo-1,4,6,7,8-pentahydroquinoline-3-carboxylate] | 34.4% | 98.9% |  | 
21 | CCOCCOC(=O)C1=C(C)NC2=C(C(=O)CCC2)C1c1ccc(OC(C)=O)cc1 (stereo not drawn) [ST013435, 4-{3-[(2-ethoxyethyl)oxycarbonyl]-2-methyl-5-oxo-4-1,4,6,7,8-pentahydroquinolyl}phenyl acetate] | 64.7% | 70.1% |  | 
22 | N#CC1=C(N)n2c(s/c(=C\c3cccc(Br)c3)c2=O)=C(C#N)C1c1cccc(Br)c1 (stereo not drawn) [RI_96] |  |  | 71.3 % of control | 70.5 % of control
23 | N#CC1=C2NC(=O)c3c(sc4c3CCCCC4)N2C2=C(C(=O)CCC2)C1c1ccc(F)cc1 (stereo not drawn) [ST041668, 5-(4-fluorophenyl)-4,8-dioxo-1,2,3,5,7,9,10,11,12,13,15-undecahydrocyclohepta[1,2-b]quinolino[1′,2′-2,1]pyrimidino[5,6-d]thiophene-6-carbonitrile] | 88.7% | 27.9% |  | 
24 | CC1=C(C(=O)OCc2ccccc2)C(c2ccccc2)C2=C(CC(C)(C)CC2=O)N1 (stereo not drawn) [ST013215, phenylmethyl 2,7,7-trimethyl-5-oxo-4-phenyl-1,4,6,7,8-pentahydroquinoline-3-carboxylate] | 0% | 88.6% |  | 
25 | CC1=C(C(=O)Nc2ccccc2)C(c2cccs2)C(C#N)=C(SCC(=O)Nc2ccc(C(C)(C)C)cc2)N1 (stereo not drawn) [RI_63] |  |  | 38.2 % of control | 38.8 % of control
26 | COC(=O)C1=C(C)NC2=C(C(=O)CC(c3ccc(Cl)cc3)C2)C1c1ccc(OCc2ccccc2)cc1 (stereo not drawn) [ST016953, methyl 7-(4-chlorophenyl)-2-methyl-5-oxo-4-[4-(phenylmethoxy)phenyl]-1,4,6,7,8-pentahydroquinoline-3-carboxylate] | 43.9% | 69.7% |  | 
27 | CCOC(=O)C1=C(C)NC2=C(C(=O)CCC2)C1c1ccc(Cl)cc1 (stereo not drawn) [ST024440, ethyl 4-(4-chlorophenyl)-2-methyl-5-oxo-1,4,6,7,8-pentahydroquinoline-3-carboxylate] | 63.1% | 97.7% |  | 
28 | CCc1cccc(NC(=O)CSC2=C(C#N)C(c3cccs3)C(C(=O)Nc3ccccc3)=C(C)N2)c1 (stereo not drawn) [RI_45] |  |  | 82.7 % of control | 61.3 % of control
29 | CC1=C(C(=O)Nc2ccc(Cl)cc2)C(c2ccccc2C)C(C#N)=C(SCC(=O)Nc2cccc(C)c2)N1 (stereo not drawn) [RI_31] |  |  | 53.9 % of control | 73.3 % of control
30 | CC1=C(C(=O)Nc2ccccc2)C(c2cccs2)C(C#N)=C(SCC(=O)Nc2cc(C)ccc2C)N1 (stereo not drawn) [RI_93] |  |  | 42.6 % of control | 58 % of control
